Test results from ChEMBL document CHEMBL1201862, “PubChem BioAssay data set” (2004).
Activity calls are given as the source filed them. For most assays here, no stated cut-off is given here; in the data, actives have a measured EC50 and inactives only a lower limit.

Assays:
[1] = molecular target: Intestinal-type alkaline phosphatase (Mus musculus, UniProt P24822); assay: PubChem AID 488874; format: functional
[2] = molecular target: T1, Intestinal-type alkaline phosphatase (Homo sapiens, UniProt P09923); assay: activation of human intestinal alkaline phosphatase – biochemical, luminescent, uHTS hits, set 2, dose response (AID 488817); format: functional;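 further: potency of activators that raise enzyme activity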
T1 sequence (P09923 whole entry, the tested form may be a part): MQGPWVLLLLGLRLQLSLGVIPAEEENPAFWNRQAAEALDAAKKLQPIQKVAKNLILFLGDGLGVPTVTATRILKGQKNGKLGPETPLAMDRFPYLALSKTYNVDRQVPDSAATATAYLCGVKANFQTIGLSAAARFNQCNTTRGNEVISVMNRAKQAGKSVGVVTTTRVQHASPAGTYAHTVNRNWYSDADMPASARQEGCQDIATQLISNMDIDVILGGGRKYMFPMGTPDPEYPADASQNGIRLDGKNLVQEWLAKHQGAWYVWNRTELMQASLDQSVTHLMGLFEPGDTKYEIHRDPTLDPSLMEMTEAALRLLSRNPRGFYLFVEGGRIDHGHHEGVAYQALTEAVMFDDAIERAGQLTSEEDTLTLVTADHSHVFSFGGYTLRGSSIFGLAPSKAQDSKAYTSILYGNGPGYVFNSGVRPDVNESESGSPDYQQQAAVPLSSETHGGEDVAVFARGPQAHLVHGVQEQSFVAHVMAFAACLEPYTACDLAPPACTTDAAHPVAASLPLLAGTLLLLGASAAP

[3] = molecular target: T2, RNA-binding protein pos-1 (Caenorhabditis elegans, UniProt G5EF15); assay: disruptors of C. elegans POS-1 RNA interaction – biochemical, fluorescence polarization, dose response (AID 1964);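 further: purified POS-1 fused to maltose binding protein made in E. coli; potency of compounds blocking POS-1 binding to fluorescent RNA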
T2 sequence (G5EF15 whole entry): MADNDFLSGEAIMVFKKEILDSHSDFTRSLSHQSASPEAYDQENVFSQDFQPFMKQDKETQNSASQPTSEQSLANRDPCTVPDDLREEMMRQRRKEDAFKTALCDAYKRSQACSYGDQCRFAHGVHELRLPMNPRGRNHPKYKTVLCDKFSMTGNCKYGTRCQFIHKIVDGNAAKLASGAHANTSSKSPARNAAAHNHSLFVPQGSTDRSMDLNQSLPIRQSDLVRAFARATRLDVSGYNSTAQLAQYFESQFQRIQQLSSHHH

[4] = molecular target: T3, Zinc finger protein mex-5 (Caenorhabditis elegans, UniProt Q9XUB2); assay: potency of MEX-5 RNA-binding blockers – biochemical, C. elegans, fluorescence polarization, dose response (AID 1960)
T3 sequence (Q9XUB2 whole entry): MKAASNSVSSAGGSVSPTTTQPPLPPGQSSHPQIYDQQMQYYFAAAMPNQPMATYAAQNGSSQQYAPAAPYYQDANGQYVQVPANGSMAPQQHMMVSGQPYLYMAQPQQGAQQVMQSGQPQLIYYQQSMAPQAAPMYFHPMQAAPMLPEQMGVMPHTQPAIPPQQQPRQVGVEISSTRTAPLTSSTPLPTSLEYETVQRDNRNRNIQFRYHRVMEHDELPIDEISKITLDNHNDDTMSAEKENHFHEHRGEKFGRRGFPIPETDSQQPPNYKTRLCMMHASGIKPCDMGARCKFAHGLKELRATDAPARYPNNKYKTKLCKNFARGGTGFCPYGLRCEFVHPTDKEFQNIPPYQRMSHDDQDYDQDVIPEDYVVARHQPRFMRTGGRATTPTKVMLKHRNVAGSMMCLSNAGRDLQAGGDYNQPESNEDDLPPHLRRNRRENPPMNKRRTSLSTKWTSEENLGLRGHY

[5] = molecular target: T4, Alkaline phosphatase, tissue-nonspecific isozyme (Homo sapiens, UniProt P05186); assay: activation of tissue-nonspecific alkaline phosphatase – biochemical, TNAP isozyme, human IAP uHTS hits, selectivity assay for human IAP activator project, dose response (AID 488886); format: functional;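 further: potency of compounds raising TNAP activity as a selectivity check on IAP activators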
T4 sequence (P05186 whole entry): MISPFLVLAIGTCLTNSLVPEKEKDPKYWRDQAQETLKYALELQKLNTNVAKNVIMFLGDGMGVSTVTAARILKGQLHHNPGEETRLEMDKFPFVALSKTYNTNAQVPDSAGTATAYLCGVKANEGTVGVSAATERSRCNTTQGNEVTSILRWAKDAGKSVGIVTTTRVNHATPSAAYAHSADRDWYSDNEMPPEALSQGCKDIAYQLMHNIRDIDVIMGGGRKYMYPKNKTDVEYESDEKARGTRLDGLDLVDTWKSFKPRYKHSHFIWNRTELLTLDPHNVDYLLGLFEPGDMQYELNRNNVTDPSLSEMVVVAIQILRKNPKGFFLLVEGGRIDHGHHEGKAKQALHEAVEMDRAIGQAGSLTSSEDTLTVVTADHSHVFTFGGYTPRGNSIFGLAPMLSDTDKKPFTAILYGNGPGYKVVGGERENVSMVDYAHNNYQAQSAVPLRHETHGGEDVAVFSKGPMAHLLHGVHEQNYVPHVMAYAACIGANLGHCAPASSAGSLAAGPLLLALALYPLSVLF

[6] = molecular target: T1, Intestinal-type alkaline phosphatase; assay: human intestinal alkaline phosphatase activators, dose response, biochemical, luminescence, uHTS hits (AID 463120); format: functional

Intestinal-type alkaline phosphatase (Mus musculus, UniProt P24822), sequence (P24822 whole entry): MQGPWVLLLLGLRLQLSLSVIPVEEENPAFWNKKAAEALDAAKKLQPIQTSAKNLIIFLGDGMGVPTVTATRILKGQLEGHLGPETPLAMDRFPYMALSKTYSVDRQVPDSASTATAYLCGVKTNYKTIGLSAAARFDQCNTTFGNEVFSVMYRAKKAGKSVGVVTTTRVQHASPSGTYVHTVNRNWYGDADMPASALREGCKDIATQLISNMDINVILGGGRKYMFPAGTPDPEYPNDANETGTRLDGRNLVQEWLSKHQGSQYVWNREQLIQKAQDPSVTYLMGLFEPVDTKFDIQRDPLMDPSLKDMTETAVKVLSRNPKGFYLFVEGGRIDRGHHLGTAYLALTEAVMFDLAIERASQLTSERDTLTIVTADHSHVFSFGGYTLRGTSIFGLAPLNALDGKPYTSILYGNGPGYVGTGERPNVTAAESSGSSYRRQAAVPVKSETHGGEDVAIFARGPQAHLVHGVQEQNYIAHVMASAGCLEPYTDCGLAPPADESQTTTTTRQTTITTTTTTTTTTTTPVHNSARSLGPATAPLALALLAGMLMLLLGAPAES

IC50 [1]: 66 µM (active)
EC50 [2]: 21.3 µM (active)
EC50 [3]: 65.5 µM (active)
EC50 [4]: > 300 µM (inconclusive)
EC50 [5]: 21.4 µM (active)
EC50 [6]: 8.43 µM (active)
SMILES: CCOC(=O)c1cnc(-n2nc(C)cc2C)nc1NNc1nc(C)cc(C)n1
